In PubChem BioAssay AID1963845 (Molecular Pharmacology Branch, DTP, NCI, 2024):
pIC50: −log10 of the molar value.

Tested on: 429239-143-T-J1-PDC complex spheroid viability
Assay: Anticancer human tumor 429239-143-T-J1-PDC patient-derived small cell lung carcinoma cell line growth inhibition [POLQ]
Settings: for pIC50: curve of first compound; for viability, T/C: stronger effect = lower value
Method in brief: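 Patient-derived tumour cells were co-cultured with HUVEC and mesenchymal stem cells as multicellular spheroids at 37 °C. They were treated with POLQ inhibitors (novobiocin, ART-558, RP6685) alone or combined with other agents. Top concentrations were at or near clinical Cmax (otherwise 10 microM; SN-38 at 1 microM), decreasing in half-log steps.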

[1] = second compound 0.0316 µM, first compound 0.0316 µM
[2] = second compound 0.0316 µM, first compound 0.1 µM
[3] = second compound 0.0316 µM, first compound 0.316 µM
[4] = second compound 0.0316 µM, first compound 1 µM
[5] = second compound 0.0316 µM, first compound 3.16 µM
[6] = second compound 0.0316 µM, first compound 10 µM
[7] = second compound 0.1 µM, first compound 0.0316 µM
[8] = second compound 0.1 µM, first compound 0.1 µM
[9] = second compound 0.1 µM, first compound 0.316 µM
[10] = second compound 0.1 µM, first compound 1 µM
[11] = second compound 0.1 µM, first compound 3.16 µM
[12] = second compound 0.1 µM, first compound 10 µM
[13] = second compound 0.316 µM, first compound 0.0316 µM
[14] = second compound 0.316 µM, first compound 0.1 µM
[15] = second compound 0.316 µM, first compound 0.316 µM
[16] = second compound 0.316 µM, first compound 1 µM
[17] = second compound 0.316 µM, first compound 3.16 µM
[18] = second compound 0.316 µM, first compound 10 µM
[19] = second compound 1 µM, first compound 0.0316 µM
[20] = second compound 1 µM, first compound 0.1 µM
[21] = second compound 1 µM, first compound 0.316 µM
[22] = second compound 1 µM, first compound 1 µM
[23] = second compound 1 µM, first compound 3.16 µM
[24] = second compound 1 µM, first compound 10 µM
[25] = second compound 3.16 µM, first compound 0.0316 µM
[26] = second compound 3.16 µM, first compound 0.1 µM
[27] = second compound 3.16 µM, first compound 0.316 µM
[28] = second compound 3.16 µM, first compound 1 µM
[29] = second compound 3.16 µM, first compound 3.16 µM
[30] = second compound 3.16 µM, first compound 10 µM
[31] = second compound 10 µM, first compound 0.0316 µM
[32] = second compound 10 µM, first compound 0.1 µM
[33] = second compound 10 µM, first compound 0.316 µM
[34] = second compound 10 µM, first compound 1 µM
[35] = second compound 10 µM, first compound 3.16 µM
[36] = second compound 10 µM, first compound 10 µM
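Further: luminescence signal used as surrogate measure of viable cells; spheroids exposed to compounds for seven days before readout.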
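Wherever viability, T/C is given: 100% = DMSO vehicle control viability as luminescence relative to vehicle.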

CCCS(=O)(=O)Nc1ccc(F)c(C(=O)c2c[nH]c3ncc(-c4ccc(Cl)cc4)cc23)c1F + COC1C(OC(N)=O)C(O)C(Oc2ccc3c(O)c(NC(=O)c4ccc(O)c(CC=C(C)C)c4)c(=O)oc3c2C)OC1(C)C
pIC50 (second compound 0.0316 µM): < 5.00
pIC50 (second compound 0.1 µM): < 5.00
pIC50 (second compound 0.316 µM): 5.01
pIC50 (second compound 1 µM): 5.05
pIC50 (second compound 3.16 µM): < 5.00
pIC50 (second compound 10 µM): 5.05
viability, T/C [1]: 105%
viability, T/C [2]: 90.4%
viability, T/C [3]: 101%
viability, T/C [4]: 102%
viability, T/C [5]: 98.6%
viability, T/C [6]: 50.5%
viability, T/C [7]: 95.7%
viability, T/C [8]: 97.4%
viability, T/C [9]: 110%
viability, T/C [10]: 102%
viability, T/C [11]: 92.4%
viability, T/C [12]: 52.5%
viability, T/C [13]: 98.8%
viability, T/C [14]: 96.3%
viability, T/C [15]: 106%
viability, T/C [16]: 87.6%
viability, T/C [17]: 109%
viability, T/C [18]: 48.9%
viability, T/C [19]: 104%
viability, T/C [20]: 100%
viability, T/C [21]: 94.5%
viability, T/C [22]: 98.8%
viability, T/C [23]: 86.2%
viability, T/C [24]: 46%
viability, T/C [25]: 109%
viability, T/C [26]: 96.3%
viability, T/C [27]: 106%
viability, T/C [28]: 83.1%
viability, T/C [29]: 98.5%
viability, T/C [30]: 53.1%
viability, T/C [31]: 92.8%
viability, T/C [32]: 101%
viability, T/C [33]: 104%
viability, T/C [34]: 84.7%
viability, T/C [35]: 119%
viability, T/C [36]: 44.1%

CNCc1ccc(-c2[nH]c3cc(F)cc4c3c2CCNC4=O)cc1 + COC1C(OC(N)=O)C(O)C(Oc2ccc3c(O)c(NC(=O)c4ccc(O)c(CC=C(C)C)c4)c(=O)oc3c2C)OC1(C)C
pIC50 (second compound 0.0316 µM): 5.64
pIC50 (second compound 0.1 µM): 5.62
pIC50 (second compound 0.316 µM): 5.59
pIC50 (second compound 1 µM): 5.57
pIC50 (second compound 3.16 µM): 5.74
pIC50 (second compound 10 µM): 5.80
viability, T/C [1]: 95.1%
viability, T/C [2]: 75%
viability, T/C [3]: 87.1%
viability, T/C [4]: 66.5%
viability, T/C [5]: 43.2%
viability, T/C [6]: 23.2%
viability, T/C [7]: 85.5%
viability, T/C [8]: 101%
viability, T/C [9]: 80.6%
viability, T/C [10]: 65.9%
viability, T/C [11]: 46.3%
viability, T/C [12]: 21.4%
viability, T/C [13]: 102%
viability, T/C [14]: 85.5%
viability, T/C [15]: 74.5%
viability, T/C [16]: 69.6%
viability, T/C [17]: 49.3%
viability, T/C [18]: 21.4%
viability, T/C [19]: 87.5%
viability, T/C [20]: 86.9%
viability, T/C [21]: 79.3%
viability, T/C [22]: 72.6%
viability, T/C [23]: 46%
viability, T/C [24]: 19.7%
viability, T/C [25]: 87.4%
viability, T/C [26]: 88.3%
viability, T/C [27]: 87.1%
viability, T/C [28]: 59.8%
viability, T/C [29]: 40.3%
viability, T/C [30]: 20%
viability, T/C [31]: 75.3%
viability, T/C [32]: 81.3%
viability, T/C [33]: 72.2%
viability, T/C [34]: 55.1%
viability, T/C [35]: 39.8%
viability, T/C [36]: 19%

COc1cc2cc(C(=O)CCC(=O)O)sc2cc1OC + Nc1ccc(C#CCN(C(=O)Cc2ncc(C(F)(F)F)cc2C(F)(F)F)c2ccc(F)cc2)nn1
pIC50 (second compound 0.0316 µM): < 5.00
pIC50 (second compound 0.1 µM): < 5.00
pIC50 (second compound 0.316 µM): < 5.00
pIC50 (second compound 1 µM): < 5.00
pIC50 (second compound 3.16 µM): < 5.00
pIC50 (second compound 10 µM): < 5.00
viability, T/C [1]: 90.4%
viability, T/C [2]: 108%
viability, T/C [3]: 89.8%
viability, T/C [4]: 107%
viability, T/C [5]: 106%
viability, T/C [6]: 119%
viability, T/C [7]: 106%
viability, T/C [8]: 113%
viability, T/C [9]: 101%
viability, T/C [10]: 106%
viability, T/C [11]: 103%
viability, T/C [12]: 97.4%
viability, T/C [13]: 105%
viability, T/C [14]: 109%
viability, T/C [15]: 96.8%
viability, T/C [16]: 117%
viability, T/C [17]: 95.4%
viability, T/C [18]: 101%
viability, T/C [19]: 105%
viability, T/C [20]: 106%
viability, T/C [21]: 94.8%
viability, T/C [22]: 97.9%
viability, T/C [23]: 100%
viability, T/C [24]: 105%
viability, T/C [25]: 97%
viability, T/C [26]: 107%
viability, T/C [27]: 103%
viability, T/C [28]: 104%
viability, T/C [29]: 94.9%
viability, T/C [30]: 99.8%
viability, T/C [31]: 96.9%
viability, T/C [32]: 105%
viability, T/C [33]: 108%
viability, T/C [34]: 98.2%
viability, T/C [35]: 99.9%
viability, T/C [36]: 98.3%
